Experimental findings from patent US11596639B2, “Substituted indole Mcl-1 inhibitors” (Vanderbilt University, priority 2016, dated 2023) are described below.

In experiment [1] the test system is H929 human cancer cell lines. Put plainly: Cellular viability / proliferation (Cell TiterGlo, 72 h). Type of experiment: cell-based. The method in brief:
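Compounds were added as 2-fold serial dilutions from 50 μM (final DMSO <1%) to H929 cells seeded 1,000 per well in 10% FBS medium one day earlier.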

A further experiment has as its target Mcl-1 (Homo sapiens (Human), UniProt Q07820). Nature of the experiment: TR-FRET binding assay, FITC-Bak peptide and MBP-tagged Mcl-1. The note with it: read-out: Ki for Inhibition of Mcl-1 by TR-FRET assay. The method, then:
Compounds are diluted in DMSO in a 16-point, semilog serial dilution scheme. […] The plate was mixed and incubated for 3 hours at room temperature. […] TR-FRET signal is plotted and IC50 and Ki values are calculated in the same manner as the fluorescence polarization anisotropy based competition assays.
(In general: Time-resolved FRET reads energy transfer from a long-lived donor to a nearby acceptor.)

[2] abbreviates: Homo sapiens, NCI-H929, 72 h, read-out: GI50 on cellular proliferation of H929 human cancer cell lines, H929 cells, 72 h, Cell TiterGlo, 10% FBS.

Read-outs that look alike come from different tables or passages of the source.

Chain of Mcl-1 (Q07820 172-327): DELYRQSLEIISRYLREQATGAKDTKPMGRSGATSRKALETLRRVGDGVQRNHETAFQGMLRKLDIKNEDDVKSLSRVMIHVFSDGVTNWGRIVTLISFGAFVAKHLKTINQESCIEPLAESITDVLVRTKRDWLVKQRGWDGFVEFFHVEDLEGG

Broadly, the Ki is the equilibrium dissociation constant of an inhibitor or competing ligand from its target. With `Cc1cc(N2C[C@@H](C)n3c(c(CCCOc4cc(C)c(Cl)c(C)c4)c4ccc(Cl)c(-c5c(C)nn(C)c5C)c43)C2=O)c2c(c1)cc(C(=O)O)n2Cc1cc(C2=NCCO2)ccn1` [Example 600, (R)-7-(7-chloro-10-(3-(4-chloro-3,5-dimethylphenoxy)propyl)-4-methyl-1-oxo-6-(1,3,5-trimethyl-1H-pyrazol-4-yl)-3,4-dihydropyrazino[1,2-a]indol-2(1H)-yl)-1-((4-(4,5-dihydrooxazol-2-yl)pyridin-2-yl)methyl)-5-methyl-1H-indole-2-carboxylic acid], the GI50 in experiment [1] (setting [2]) was 2500 nM. For the same molecule, the inhibition constant Ki on Mcl-1 is less than 0.2 nM.
The like results for `COCCn1cc(N2C[C@@H](C)n3c(c(CCCOc4cc(C)c(Cl)c(C)c4)c4ccc(Cl)c(-c5c(C)nn(C)c5C)c43)C2=O)c2cc(-c3ncn(CCN4CCN(C)CC4)n3)ccc21` [Example 602, (R)-7-Chloro-10-(3-(4-chloro-3,5-dimethylphenoxy)propyl)-2-(1-(2-methoxyethyl)-5-(1-(2-(4-methylpiperazin-1-yl)ethyl)-1H-1,2,4-triazol-3-yl)-1H-indol-3-yl)-4-methyl-6-(1,3,5-trimethyl-1H-pyrazol-4-yl)-3,4-dihydropyrazino[1,2-a]indol-1(2H)-one] were, in that order, 430 nM and 5.9 nM.
The like results for `Cc1cc(OCCCc2c3n(c4c(-c5c(C)nn(C)c5C)c(Cl)ccc24)[C@H](C)CN(c2cn(CCN4CCN(C)C(=O)C4)c4ccc(-c5ncn(C)n5)cc24)C3=O)cc(C)c1Cl` [Example 603, (R)-7-Chloro-10-(3-(4-chloro-3,5-dimethylphenoxy)propyl)-4-methyl-2-(5-(1-methyl-1H-1,2,4-triazol-3-yl)-1-(2-(4-methyl-3-oxopiperazin-1-yl)ethyl)-1H-indol-3-yl)-6-(1,3,5-trimethyl-1H-pyrazol-4-yl)-3,4-dihydropyrazino[1,2-a]indol-1(2H)-one] were, in that order, less than 200 nM and 0.89 nM.
Consider `COc1cc(N2C[C@@H](C)n3c(c(CCCOc4cc(C)c(Cl)c(C)c4)c4ccc(Cl)c(-c5c(C)nn(C)c5C)c43)C2=O)c2c(c1)c(C(=O)O)cn2Cc1ccccn1` [Example 605, (R)-7-(7-chloro-10-(3-(4-chloro-3,5-dimethylphenoxy)propyl)-4-methyl-1-oxo-6-(1,3,5-trimethyl-1H-pyrazol-4-yl)-3,4-dihydropyrazino[1,2-a]indol-2(1H)-yl)-5-methoxy-1-(pyridin-2-ylmethyl)-1H-indole-3-carboxylic acid], for which the GI50 in experiment [1] (setting [2]) was 490 nM. In addition, at Mcl-1, the inhibitory constant (Ki) came out at 0.45 nM.
On to `Cc1cc(OCCCc2c3n(c4c(-c5c(C)nn(C)c5C)c(Cl)ccc24)[C@H](C)CN(c2cc(OCCOC(C)C)cc4c(C(=O)O)cn(Cc5ccccn5)c24)C3=O)cc(C)c1Cl` [Example 606, (R)-7-(7-chloro-10-(3-(4-chloro-3,5-dimethylphenoxy)propyl)-4-methyl-1-oxo-6-(1,3,5-trimethyl-1H-pyrazol-4-yl)-3,4-dihydropyrazino[1,2-a]indol-2(1H)-yl)-5-(2-isopropoxyethoxy)-1-(pyridin-2-ylmethyl)-1H-indole-3-carboxylic acid], for which, in experiment [1] (setting [2]), the GI50 amounted to 600 nM. Also, the Ki on Mcl-1 came to 0.47 nM.
For `COCc1cc(N2C[C@@H](C)n3c(c(CCCOc4cc(C)c(Cl)c(C)c4)c4ccc(Cl)c(-c5c(C)nn(C)c5C)c43)C2=O)c2c(c1)cc(C(=O)O)n2C` [Example 607, (R)-7-(7-chloro-10-(3-(4-chloro-3,5-dimethylphenoxy)propyl)-4-methyl-1-oxo-6-(1,3,5-trimethyl-1H-pyrazol-4-yl)-3,4-dihydropyrazino[1,2-a]indol-2(1H)-yl)-5-(methoxymethyl)-1-methyl-1H-indole-2-carboxylic acid], in experiment [1] (setting [2]), the GI50 is less than 200 nM. Besides, the Ki on Mcl-1 was less than 0.2 nM.
Turning to `Cc1cc(OCCCc2c3n(c4c(-c5c(C)nn(C)c5C)c(Cl)ccc24)[C@H](C)CN(c2cc(N(C)C(=O)[C@H](C)N(C)C)cc4c(C(=O)O)cn(C)c24)C3=O)cc(C)c1Cl` [Example 608, 7-((R)-7-chloro-10-(3-(4-chloro-3,5-dimethylphenoxy)propyl)-4-methyl-1-oxo-6-(1,3,5-trimethyl-1H-pyrazol-4-yl)-3,4-dihydropyrazino[1,2-a]indol-2(1H)-yl)-5-((S)-2-(dimethylamino)-N-methylpropanamido)-1-methyl-1H-indole-3-carboxylic acid], the GI50 in experiment [1] (setting [2]) was 304000 nM. The Ki on Mcl-1 was 0.91 nM.
Consider `COCCOc1cc(N2C[C@@H](C)n3c(c(CCCOc4cc(C)c(Cl)c(C)c4)c4ccc(Cl)c(-c5c(C)nn(C)c5C)c43)C2=O)c2c(c1)c(C(=O)O)cn2Cc1ccccn1` [Example 609, (R)-7-(7-chloro-10-(3-(4-chloro-3,5-dimethylphenoxy)propyl)-4-methyl-1-oxo-6-(1,3,5-trimethyl-1H-pyrazol-4-yl)-3,4-dihydropyrazino[1,2-a]indol-2(1H)-yl)-5-(2-methoxyethoxy)-1-(pyridin-2-ylmethyl)-1H-indole-3-carboxylic acid], for which the GI50 in experiment [1] (setting [2]) amounted to 340 nM. Further, the Ki on Mcl-1 turned out to be 0.26 nM.
`CCOCCOc1cc(N2C[C@@H](C)n3c(c(CCCOc4cc(C)c(Cl)c(C)c4)c4ccc(Cl)c(-c5c(C)nn(C)c5C)c43)C2=O)c2c(c1)c(C(=O)O)cn2Cc1ccccn1` [Example 610, (R)-7-(7-chloro-10-(3-(4-chloro-3,5-dimethylphenoxy)propyl)-4-methyl-1-oxo-6-(1,3,5-trimethyl-1H-pyrazol-4-yl)-3,4-dihydropyrazino[1,2-a]indol-2(1H)-yl)-5-(2-ethoxyethoxy)-1-(pyridin-2-ylmethyl)-1H-indole-3-carboxylic acid]: the GI50 in experiment [1] (setting [2]) stood at 400 nM. The Ki on Mcl-1 was less than 0.2 nM.
The like results for `Cc1cc(OCCCc2c3n(c4c(-c5c(C)nn(C)c5C)c(Cl)ccc24)[C@H](C)CN(c2cc(COCCN(C)C)cc4cc(C(=O)O)n(C)c24)C3=O)cc(C)c1Cl` [Example 614, (R)-7-(7-chloro-10-(3-(4-chloro-3,5-dimethylphenoxy)propyl)-4-methyl-1-oxo-6-(1,3,5-trimethyl-1H-pyrazol-4-yl)-3,4-dihydropyrazino[1,2-a]indol-2(1H)-yl)-5-((2-(dimethylamino)ethoxy)methyl)-1-methyl-1H-indole-2-carboxylic acid] were, in that order, 690 nM and less than 0.2 nM.
As for `COCCn1cc(N2C[C@@H](C)n3c(c(CCCOc4cc(C)c(Cl)c(C)c4)c4ccc(Cl)c(-c5c(C)nn(C)c5C)c43)C2=O)c2cc(-c3ncn(CCN4CCOCC4)n3)ccc21` [Example 615, (R)-7-Chloro-10-(3-(4-chloro-3,5-dimethylphenoxy)propyl)-2-(1-(2-methoxyethyl)-5-(1-(2-morpholinoethyl)-1H-1,2,4-triazol-3-yl)-1H-indol-3-yl)-4-methyl-6-(1,3,5-trimethyl-1H-pyrazol-4-yl)-3,4-dihydropyrazino[1,2-a]indol-1(2H)-one], the GI50 in experiment [1] (setting [2]) was determined as 370 nM. Besides, the Ki on Mcl-1 worked out at 9.6 nM.
Regarding `Cc1cc(OCCCc2c3n(c4c(-c5c(C)nn(C)c5C)c(Cl)ccc24)[C@H](C)CN(c2cn(CC4(C)COC4)c4ccc(C(=O)O)cc24)C3=O)cc(C)c1Cl` [Example 616], the GI50 in experiment [1] (H929 cells, 72 h, Cell TiterGlo, 10% FBS, read-out: GI50 on cellular proliferation of H929 human cancer cell lines) was 340 nM. Moreover, the Ki on Mcl-1 is less than 0.2 nM.
